{"source": "patent US12642809B2", "about": "“Fucosylation and immune modulation in cancer” (H. LEE MOFFITT CANCER CENTER AND RESEARCH INSTITUTE, INC., priority 2019, dated 2026)", "key": {"[1]": {"test_system": "Leukocyte Adhesion Deficiency II", "settings": "L-fuc supplementation; cited from earlier work"}, "SW1 tumors [2]": {"test_system": "SW1 tumors", "test": "H2K1/EB1 knockdown and EB1 fucomutant reconstitution SW1 tumor model", "type": "in vivo, mouse", "settings": "for L-fuc-triggered tumor suppression: EB1 (IEβ) knockdown tumors (shEB1, shEB1+EV)", "experimental": "Single-cell suspensions from tumor and spleen tissue were stained with Live/Dead Zombie NIR (Biolegend, (San Diego, CA)) at 1:1,000 in PBS for 20 min. Cell suspensions were spun down and stained with the following antibodies: APC anti-mouse CD3 (0.5 μg/mL, BD Biosciences (San Jose, CA)), Pacific Blue anti-mouse CD4 ([…], BD Biosciences (San Jose, CA)), BV785 anti-mouse CD8 (0.5 μg/mL, BD Biosciences (San Jose, CA)), PerCP anti-mouse CD25 ([…], BD Biosciences (San Jose, CA)), FITC anti-mouse F4/80 (0.5 μg/mL, BD Biosciences (San Jose, CA)), PeCy7 anti-mouse CD11c (0.5 μg/mL, BD Biosciences (San Jose, CA)), PE anti-mouse NK1.1 (0.5 μg/mL, BD Biosciences (San Jose, CA)), PE anti-mouse DX5 (0.5 μg/mL, BD Biosciences (San Jose, CA)), PerCP-Cy5.5 anti-mouse CD11b (0.5 μg/mL, BD Biosciences (San Jose, CA)). After staining, the cells were washed and fixed (2% formaldehyde), followed by another wash and flow cytometric analysis. The compensation controls were prepared using 0.5 μg/ml. of each antibody with beads UltraComp eBeads™, (ThermoFisher Scientific (Waltham, MA)). All samples were subject to flow cytometric analysis using a LSR Flow Cytometer (BD Biosciences (San Jose, CA)). Flow cytometric data was further analyzed using FlowJo™ analysis software (BD Biosciences (San Jose, CA)). TIL profiles were determined as a measure of TIL subpopulations per gram of tumor tissues or % of total splenocytes.\nSW1 mouse melanoma cells expressing either shNT (non-targeting shRNA), shH2K1, shEB1, shNT+EV, shEB1+EV, shEB1+EB1 WT, or shEB1+EB1 N46G were injected into syngeneic C3H/HeN female mice. After approximately 7 days, when the mice tumors reached ˜150 mm^3, the mice were either supplemented with or without 100 mM L-fucose (Biosynth (Oak Terrace, IL)) via drinking water, which was provided ad libitum. When the tumors reached ˜2 cm^3, the animals were sacrificed, and the tumors were either processed for flow cytometric profiling or for histological analysis as indicated"}, "human CD4+ T cells": {"test_system": "human CD4+ T cells", "test": "CD3/CD28 human CD4+ T cell activation assay / IFNγ ELISA", "type": "cell-based", "experimental": "Human CD4^+ T cells were isolated from fresh PBMC using a CD4^+ T cell negative selection isolation kit (Stem Cell Technologies, (Vancouver CA)) according to manufacturer's protocols. CD4^+ T cells were cultured in the presence of DMSO, 250 μM FUTi (Millapore Sigma (St. Louis, MO)), or 250 μM L-fucose 3 days prior to activation. After 3 days, the CD4^+ T cells were activated using anti-CD3/CD28 Dynabeads (ThermoFisher Scientific (Waltham, MA)) in a 1:1 bead: CD4^+ T cell ratio. After 24 h, supernatants were collected and IFNγ ELISA was performed according to manufacturer's protocols (Biolegend (San Diego, CA))."}, "SM1 tumors": {"test_system": "SM1 tumors", "test": "Anti-PD1 ± L-fucose, SM1 (BRAF-mutant) model in C57BL/6 mice", "type": "in vivo, mouse", "description": "(§1) Fucosylation of HLA-DRB1 occurs on amino acid N48 (mutation to G abolishes interaction with fucose-binding AAL, lectin) (FIG. 9A). […] To further investigate the efficacy of the combination therapy of L-fucose and anti-PD1 and to see if the combination of L-fucose and anti-PD1 improved the efficacy of either agent alone, two mouse melanoma mouse models were used. The first was the NRAS-mutant melanoma mouse model. Here, C3H mice were pretreated with anti-PD1 and/or L-fucose or a L-fucose pre-dose followed by anti-PD1 antibody (FIG. 11). […] Using a BRAF-mutant melanoma model, the efficacy of the combination therapy was more pronounced. Here C57BL6 mice were challenged with SMI cells (FIG. 11). 7 days post challenge, mice received either a control, anti-PD1, L-fucose, or L-fucose and anti-PD1.\n(§2) SW1 or SM1 mouse melanoma cells were injected into syngeneic C3H/HeN female or C57BL/6 male mice, respectively. After approximately 7 days, when the mice tumors reached ˜150 mm^3, the mice were either supplemented with or without 100 mM L-fucose (Biosynth (Oak Terrace, IL)) via drinking water, which was provided ad libitum. Simultaneously, the mice were injected either with PBS (control) or anti-PD1 (20 mg/kg, clone RMP1-14, Bioxcell (West Lebanon, NH)) every 3-4 days until endpoint. When the tumors reached ˜2 cm^3, the animals were sacrificed."}, "SW1 tumors [3]": {"test_system": "SW1 tumors", "test": "SW1/C3H/HeJ model, L-fucose with anti-CTLA4 or anti-PD1 (FIG. 10)", "type": "in vivo, mouse", "settings": "oral L-fucose 100 mM from day 14", "experimental": "FIGS. 10A and 10B show Oral L-fucose is more tumor suppressive than α-CTLA4 or α-PD1 alone, beginnings of improved effects. SW1 tumor growth curves in mice fed ±100 mM L-fucose treated with either control (PBS) or […] (10A) or α-PD1 (10B). Combinations are color-coded as indicated. N=8 mice per condition. L-fucose was administered in the water starting on day 14 (refreshed twice weekly); α-CTLA4 or α-PD1 was administered (20 mg/kg each) twice weekly starting day 14."}, "SW1 tumors [4]": {"test_system": "SW1 tumors", "test": "Anti-PD1 ± L-fucose, SW1 (NRAS-mutant) model in C3H mice", "type": "in vivo, mouse", "description": "as §1, §2"}}, "note": "Entries after “also recorded” stand apart in the source; their conditions may differ.", "data": [{"smiles": "C[C@H](O)[C@@H](O)[C@@H](O)[C@H](O)C=O", "note": "[L-fucose]", "values": [{"measurement": "co-morbidities", "setting": "[1]", "result": "without significant co-morbidities"}, {"measurement": "symptoms of the disorder", "setting": "[1]", "result": "can be mitigated"}, {"measurement": "L-fuc-triggered tumor suppression", "setting": "SW1 tumors [2]", "result": "abrogates"}, {"measurement": "L-fuc-triggered tumor suppression", "setting": "SW1 tumors [2]; listed as L-fuc", "result": "completely abrogated"}, {"measurement": "reduced tumor growth", "setting": "SW1 tumors [2]; control knockdown (shNT / shNT+EV) tumors", "result": "~60", "unit": "%"}, {"measurement": "tumor suppression", "setting": "SW1 tumors [2]; shEB1+N46G tumors", "result": "did not suppress"}, {"measurement": "reduced tumor growth", "setting": "SW1 tumors [2]; shEB1+WT tumors", "result": "> 60", "unit": "%"}, {"measurement": "L-fuc-triggered induction of total TIL counts and subpopulations", "setting": "SW1 tumors [2]; shEB1 tumors", "result": "reduced; also recorded: abrogated"}, {"measurement": "TIL induction by L-fuc", "setting": "SW1 tumors [2]; shEB1 tumors reconstituted with EB1 WT", "result": "restored"}, {"measurement": "TIL induction by L-fuc", "setting": "SW1 tumors [2]; shEB1 tumors reconstituted with EV or EB1 N46G", "result": "did not"}, {"measurement": "increase of CD4+ T cell activation (IFNγ production)", "setting": "human CD4+ T cells; 250 μM, 3 days before CD3/CD28 activation", "result": "~37", "unit": "%"}, {"measurement": "IFN-γ production relative to DMSO treated controls", "setting": "human CD4+ T cells; FIG. 13", "result": "increase"}, {"measurement": "tumor growth suppressed", "setting": "SM1 tumors; for 21 days", "result": "> 50", "unit": "%"}, {"measurement": "tumor suppression compared with anti-PD1", "setting": "SM1 tumors; single agents", "result": "less effective than anti-PD1"}, {"measurement": "suppression of melanoma growth compared with checkpoint antibodies", "setting": "SW1 tumors [3]", "result": "more significantly than anti-CTLA4 or anti-PD1 alone"}, {"measurement": "suppressed tumor growth", "setting": "SW1 tumors [4]; 100 mM L-fuc alone", "result": "50-60%"}, {"measurement": "control of tumor", "setting": "SW1 tumors [4]; NRAS-mutant model, FIG. 11, single agents", "result": "effectively control the tumor"}, {"measurement": "tumor suppression compared with anti-PD1", "setting": "SW1 tumors [4]; single agents", "result": "as much as anti-PD1; also recorded: as well as anti-PD1"}]}]}
